Experimental data as given in ChEMBL document CHEMBL5729575, “Alkynyl-substituted heterocyclic compound, preparation method therefor and medical use thereof” (2023).

What was measured:
[1] = molecular target: Fibroblast growth factor receptor 2 (Homo sapiens, UniProt P21802); experiment: FGFR2 Activity Inhibition Test: The reaction buffer contains the following components: 5-fold diluted enzymatic buffer/kinase 5x(Cisbio, Cat No. 62EZBFDD)(its main component is 50nM HEPES, pH 7.0), 5mM MgCl2 and 1 mM DTT, a human recombinant FGFR2 catalytic domain protein (amino acid 400-821) which was purchased from Yiqiao Shenzhou Biotech Co. Ltd., a 0.45ng/uL kinase solution diluted by the …
Sequence of Fibroblast growth factor receptor 2 (P21802 whole entry, the tested form may be a part): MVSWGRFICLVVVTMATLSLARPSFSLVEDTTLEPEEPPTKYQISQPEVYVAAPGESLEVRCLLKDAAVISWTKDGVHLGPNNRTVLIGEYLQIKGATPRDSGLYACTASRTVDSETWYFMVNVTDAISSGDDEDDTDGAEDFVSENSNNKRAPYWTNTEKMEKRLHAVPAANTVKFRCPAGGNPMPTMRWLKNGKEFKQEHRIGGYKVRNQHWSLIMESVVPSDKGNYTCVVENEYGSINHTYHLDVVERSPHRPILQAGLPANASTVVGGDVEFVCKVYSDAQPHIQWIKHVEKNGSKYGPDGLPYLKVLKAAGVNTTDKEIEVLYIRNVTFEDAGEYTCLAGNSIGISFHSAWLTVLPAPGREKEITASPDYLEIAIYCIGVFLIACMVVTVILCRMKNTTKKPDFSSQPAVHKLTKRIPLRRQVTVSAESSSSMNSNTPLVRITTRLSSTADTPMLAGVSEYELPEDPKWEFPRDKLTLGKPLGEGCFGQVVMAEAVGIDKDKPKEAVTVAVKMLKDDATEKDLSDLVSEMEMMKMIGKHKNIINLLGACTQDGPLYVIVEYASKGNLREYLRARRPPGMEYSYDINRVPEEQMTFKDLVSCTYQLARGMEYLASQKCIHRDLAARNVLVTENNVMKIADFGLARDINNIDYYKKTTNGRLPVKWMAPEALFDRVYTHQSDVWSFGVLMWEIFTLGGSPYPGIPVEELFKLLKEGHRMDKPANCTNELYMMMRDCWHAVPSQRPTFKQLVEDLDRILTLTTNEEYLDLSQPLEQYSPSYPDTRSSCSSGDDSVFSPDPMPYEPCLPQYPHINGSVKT

[2] = molecular target: Fibroblast growth factor receptor 3 (Homo sapiens, UniProt P22607); experiment: FGFR3 Activity Inhibition Test: The reaction buffer contains the following components: 5-fold diluted enzymatic buffer/kinase 5x(Cisbio, Cat No. 62EZBFDD)(its main component is 50nM HEPES, pH 7.0), 5mM MgCl2 and 1 mM DTT, a […] which was purchased from Yiqiao Shenzhou Biotech Co. Ltd., a 0.3 ng/uL kinase solution diluted by the …
Sequence of Fibroblast growth factor receptor 3 (P22607 whole entry): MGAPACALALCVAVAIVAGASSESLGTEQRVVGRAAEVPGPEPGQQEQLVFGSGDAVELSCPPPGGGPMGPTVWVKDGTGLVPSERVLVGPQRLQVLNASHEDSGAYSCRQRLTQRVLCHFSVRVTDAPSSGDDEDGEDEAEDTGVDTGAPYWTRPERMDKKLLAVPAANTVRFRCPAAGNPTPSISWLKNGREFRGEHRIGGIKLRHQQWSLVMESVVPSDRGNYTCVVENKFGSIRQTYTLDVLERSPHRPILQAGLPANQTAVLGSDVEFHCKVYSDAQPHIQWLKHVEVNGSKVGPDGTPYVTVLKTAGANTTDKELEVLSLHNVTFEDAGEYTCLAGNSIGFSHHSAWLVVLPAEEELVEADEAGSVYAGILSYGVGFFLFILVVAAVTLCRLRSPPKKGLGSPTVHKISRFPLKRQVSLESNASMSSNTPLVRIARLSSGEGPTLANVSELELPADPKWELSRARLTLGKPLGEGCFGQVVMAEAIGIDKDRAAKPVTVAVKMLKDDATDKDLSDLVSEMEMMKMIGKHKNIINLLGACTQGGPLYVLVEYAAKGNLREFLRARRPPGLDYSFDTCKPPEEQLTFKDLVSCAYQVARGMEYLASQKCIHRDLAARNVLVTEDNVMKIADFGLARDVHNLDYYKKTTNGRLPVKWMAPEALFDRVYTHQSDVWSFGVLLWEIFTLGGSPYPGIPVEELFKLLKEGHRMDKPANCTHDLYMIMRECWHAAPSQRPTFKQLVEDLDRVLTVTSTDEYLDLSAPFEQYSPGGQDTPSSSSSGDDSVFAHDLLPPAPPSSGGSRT

SMILES: CC#CC(=O)N1CC[C@H](n2nc(C#Cc3cc(OC)cc(OC)c3)c(C(N)=O)c2N)C1
- IC50 [1]: < 10 nM
- IC50 [2]: < 10 nM
